The assay has as its target T1, LXRβ (Homo sapiens, UniProt P55055).
T1 construct: Co-transfection expression plasmids, comprising full-length LXRα (pCMX-h LXRα[…] or LXRβ (pCMX-hLXRβ)); expressed in transfected cells; host or cells: CV-1 African Green Monkey Kidney Cells
T1 sequence (P55055 1-460): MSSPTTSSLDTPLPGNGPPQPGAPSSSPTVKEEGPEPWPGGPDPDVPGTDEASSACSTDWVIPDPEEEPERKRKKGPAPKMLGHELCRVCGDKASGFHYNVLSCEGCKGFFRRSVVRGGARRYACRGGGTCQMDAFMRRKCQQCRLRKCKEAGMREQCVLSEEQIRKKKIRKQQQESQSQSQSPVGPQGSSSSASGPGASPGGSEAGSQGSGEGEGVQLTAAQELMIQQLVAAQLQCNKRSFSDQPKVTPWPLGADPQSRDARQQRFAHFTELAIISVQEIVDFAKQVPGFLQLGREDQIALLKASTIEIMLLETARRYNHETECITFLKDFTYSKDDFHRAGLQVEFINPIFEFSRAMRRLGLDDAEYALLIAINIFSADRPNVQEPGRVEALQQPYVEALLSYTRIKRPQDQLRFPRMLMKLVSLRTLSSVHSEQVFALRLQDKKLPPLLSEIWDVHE
T1 sequence (P19793 1-462 partner): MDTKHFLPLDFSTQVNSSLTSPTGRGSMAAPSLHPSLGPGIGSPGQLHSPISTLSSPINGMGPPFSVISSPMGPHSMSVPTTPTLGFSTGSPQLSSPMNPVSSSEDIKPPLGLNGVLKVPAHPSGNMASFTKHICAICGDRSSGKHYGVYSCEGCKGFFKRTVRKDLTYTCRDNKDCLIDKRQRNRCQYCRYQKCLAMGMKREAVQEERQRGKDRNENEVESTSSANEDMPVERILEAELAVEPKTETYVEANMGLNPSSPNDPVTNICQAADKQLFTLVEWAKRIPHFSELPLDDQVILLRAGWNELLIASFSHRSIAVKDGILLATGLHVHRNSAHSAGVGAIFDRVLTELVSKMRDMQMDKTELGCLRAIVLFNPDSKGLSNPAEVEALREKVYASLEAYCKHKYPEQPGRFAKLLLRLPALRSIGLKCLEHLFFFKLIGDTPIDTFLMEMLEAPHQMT
The experiment in a line: Co-transfection assay (LXRE luciferase reporter), LXRβ. It counts as cell-based. To be noted: for EC50: CV-1 cells transfected with pCMX-hLXRβ and LXREx1-Tk-Luciferase, 20 hours incubation; for Emax: LXRβ co-transfection, relative to high control 1-(2,4-difluorobenzyl)-2-oxo-6-(4-phenoxyphenyl)-4-(trifluoromethyl)-1,2-dihydropyridine-3-carbonitrile, read-out: % Efficacy. The method in brief: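 Cell-based LXRβ agonism measured as LXRE-luciferase induction in transiently transfected CV-1 cells after 20 h treatment. Potency is the curve-fit EC50; efficacy is expressed as percent of a full-agonist control's maximal response.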
In general terms: A reporter such as luciferase makes a cellular process visible.

In general, EC50 refers to the concentration at which the effect is half-maximal. Higher therefore signals weaker potency.

Consider `Cc1nc(-c2cc(-c3cc(F)c(CO)c(S(C)(=O)=O)c3)ccc2-n2cc(C(F)(F)F)nc2C)c(-c2ccc(OC3CCCC3)nc2)o1` [Example 411, (3′-(5-(6-(cyclopentyloxy)pyridin-3-yl)-2-methyloxazol-4-yl)-3-fluoro-4′-(2-methyl-4-(trifluoromethyl)-1H-imidazol-1-yl)-5-(methylsulfonyl)biphenyl-4-yl)methanol], for which the concentration giving a half-maximal response (EC50) was found to be 255 nM and the Emax was 60%.
For `COc1cnc(-c2oc(C)nc2-c2cc(-c3cccc(S(C)(=O)=O)c3)ccc2-n2cc(C(F)(F)F)nc2C)cn1` [Example 412, 5-(5-methoxypyrazin-2-yl)-2-methyl-4-(4-(2-methyl-4-(trifluoromethyl)-1H-imidazol-1-yl)-3′-(methylsulfonyl)biphenyl-3-yl)oxazole] the same measures were 518 nM and 72%.
On the same counts, the results for `COc1cnc(-c2oc(C)nc2-c2cc(-c3cc(F)c(CO)c(S(C)(=O)=O)c3)ccc2-n2cc(C(F)(F)F)nc2C)cn1` [Example 413, (3-fluoro-3′-(5-(5-methoxypyrazin-2-yl)-2-methyloxazol-4-yl)-4′-(2-methyl-4-(trifluoromethyl)-1H-imidazol-1-yl)-5-(methylsulfonyl)biphenyl-4-yl)methanol] are 426 nM and 63%.
For `COc1ncc(-c2oc(C)nc2-c2cc(-c3cccc(S(C)(=O)=O)c3)ccc2-n2cc(C(F)(F)F)nc2C)cn1` [Example 414, 5-(2-methoxypyrimidin-5-yl)-2-methyl-4-(4-(2-methyl-4-(trifluoromethyl)-1H-imidazol-1-yl)-3′-(methylsulfonyl)biphenyl-3-yl)oxazole] the same measures were 657 nM and 70%.
Consider `COc1ncc(-c2oc(C)nc2-c2cc(-c3cc(F)c(CO)c(S(C)(=O)=O)c3)ccc2-n2cc(C(F)(F)F)nc2C)cn1` [Example 415, (3-fluoro-3′-(5-(2-methoxypyrimidin-5-yl)-2-methyloxazol-4-yl)-4′-(2-methyl-4-(trifluoromethyl)-1H-imidazol-1-yl)-5-(methylsulfonyl)biphenyl-4-yl)methanol], for which the half-maximal effective concentration (EC50) stood at 1500 nM and the Emax turned out to be 86%.
On the same counts, the results for `Cc1nc(-c2cc(-c3cccc(S(=O)(=O)C4CC4)c3)ccc2-n2cc(C(F)(F)F)nc2C)c(-c2ccc3c(c2)OC(F)(F)O3)o1` [Example 416] are 30 nM and 76%.
On the same counts, the results for `Cc1nc(-c2cc(-c3cccc(S(=O)(=O)C(F)F)c3)ccc2-n2cc(C(F)(F)F)nc2C)c(-c2ccc3c(c2)OC(F)(F)O3)o1` [Example 417, 5-(2,2-difluorobenzo[d][1,3]dioxol-5-yl)-4-(3′-(difluoromethylsulfonyl)-4-(2-methyl-4-(trifluoromethyl)-1H-imidazol-1-yl)biphenyl-3-yl)-2-methyloxazole] are 43 nM and 56%.
For `Cc1nc(-c2cc(-c3cccc(C(=O)N(C)C)c3)ccc2-n2cc(C(F)(F)F)nc2C)c(-c2ccc3c(c2)OC(F)(F)O3)o1` [Example 418, 3′-(5-(2,2-difluorobenzo[d][1,3]dioxol-5-yl)-2-methyloxazol-4-yl)-N,N-dimethyl-4′-(2-methyl-4-(trifluoromethyl)-1H-imidazol-1-yl)biphenyl-3-carboxamide] the same measures were 740 nM and 73%.
As for `Cc1nc(-c2cc(-c3cccc(S(C)(=O)=O)c3)ccc2-n2cc(C(F)(F)F)nc2C)c(-c2ccc3c(c2)CC(C)(C)O3)o1` [Example 419, 5-(2,2-dimethyl-2,3-dihydrobenzofuran-5-yl)-2-methyl-4-(4-(2-methyl-4-(trifluoromethyl)-1H-imidazol-1-yl)-3′-(methylsulfonyl)biphenyl-3-yl)oxazole], a half-maximal effect (EC50) was put at 145 nM and the Emax is 66%.
On the same counts, the results for `Cc1nc(-c2cc(-c3cc(F)c(CO)c(S(C)(=O)=O)c3)ccc2-n2cc(C(F)(F)F)nc2C)c(-c2ccc3c(c2)CC(C)(C)O3)o1` [Example 420, (3′-(5-(2,2-dimethyl-2,3-dihydrobenzofuran-5-yl)-2-methyloxazol-4-yl)-3-fluoro-4′-(2-methyl-4-(trifluoromethyl)-1H-imidazol-1-yl)-5-(methylsulfonyl)biphenyl-4-yl)methanol] are 82 nM and 86%.
For `Cc1nc(-c2cc(-c3cc(F)c(CO)c(S(C)(=O)=O)c3)ccc2-n2cc(C(F)(F)F)nc2C)c(-c2cncc(Cl)c2)o1` [Example 421, (3′-(5-(5-chloropyridin-3-yl)-2-methyloxazol-4-yl)-3-fluoro-4′-(2-methyl-4-(trifluoromethyl)-1H-imidazol-1-yl)-5-(methylsulfonyl)biphenyl-4-yl)methanol] the same measures were 218 nM and 76%.
On the same counts, the results for `Cc1ccc(-c2oc(C)nc2-c2cc(-c3cccc(S(C)(=O)=O)c3)ccc2-n2cc(C(F)(F)F)nc2C)c(Cl)n1` [Example 422, 5-(2-chloro-6-methylpyridin-3-yl)-2-methyl-4-(4-(2-methyl-4-(trifluoromethyl)-1H-imidazol-1-yl)-3′-(methylsulfonyl)biphenyl-3-yl)oxazole] are 110 nM and 74%.
Regarding `Cc1nc(-c2cc(-c3cccc(S(C)(=O)=O)c3)ccc2-n2cc(Cl)nc2C)c(-c2ccc3c(c2)OC(F)(F)O3)o1` [Example 423, 4-(4-(4-chloro-2-methyl-1H-imidazol-1-yl)-3′-(methylsulfonyl)biphenyl-3-yl)-5-(2,2-difluorobenzo[d][1,3]dioxol-5-yl)-2-methyloxazole], it took 61 nM to reach a half-maximal effect (EC50) and the Emax is 74%.
For `Cc1nc(-c2cc(-c3cc(F)c(CO)c(S(C)(=O)=O)c3)ccc2-n2cc(Cl)nc2C)c(-c2ccc3c(c2)OC(F)(F)O3)o1` [Example 424, (4′-(4-chloro-2-methyl-1H-imidazol-1-yl)-3′-(5-(2,2-difluorobenzo[d][1,3]dioxol-5-yl)-2-methyloxazol-4-yl)-3-fluoro-5-(methylsulfonyl)biphenyl-4-yl)methanol] the same measures were 46 nM and 59%.
On the same counts, the results for `Cc1nc(-c2cc(-c3cccc(S(C)(=O)=O)c3)ccc2-n2cc(C(F)(F)F)nc2C)c(-c2ccc(OCC(F)F)c(F)c2)o1` [Example 425, 5-(4-(2,2-difluoroethoxy)-3-fluorophenyl)-2-methyl-4-(4-(2-methyl-4-(trifluoromethyl)-1H-imidazol-1-yl)-3′-(methylsulfonyl)biphenyl-3-yl)oxazole] are 203 nM and 71%.
On the same counts, the results for `Cc1nc(-c2cc(-c3cc(F)c(CO)c(S(C)(=O)=O)c3)ccc2-n2cc(C(F)(F)F)nc2C)c(-c2ccc(OCC(F)F)c(F)c2)o1` [Example 426, (3′-(5-(4-(2,2-difluoroethoxy)-3-fluorophenyl)-2-methyloxazol-4-yl)-3-fluoro-4′-(2-methyl-4-(trifluoromethyl)-1H-imidazol-1-yl)-5-(methylsulfonyl)biphenyl-4-yl)methanol] are 118 nM and 92%.
For the compound `Cc1nc(-c2cc(-c3cc(F)c(CO)c(S(C)(=O)=O)c3)ccc2-n2cc(C(F)(F)F)nc2C)c(-c2cccc(Cl)n2)o1` [Example 427, (3′-(5-(6-chloropyridin-2-yl)-2-methyloxazol-4-yl)-3-fluoro-4′-(2-methyl-4-(trifluoromethyl)-1H-imidazol-1-yl)-5-(methylsulfonyl)biphenyl-4-yl)methanol], the midpoint of the response, the EC50, lay at 143 nM and the Emax amounted to 63%.
In the case of `Cc1ncc(-c2oc(C)nc2-c2cc(-c3cc(F)c(CO)c(S(C)(=O)=O)c3)ccc2-n2cc(C(F)(F)F)nc2C)cn1` [Example 428, (3-fluoro-4′-(2-methyl-4-(trifluoromethyl)-1H-imidazol-1-yl)-3′-(2-methyl-5-(2-methylpyrimidin-5-yl)oxazol-4-yl)-5-(methylsulfonyl)biphenyl-4-yl)methanol], a half-maximal effect (EC50) was put at 3090 nM and the Emax was 50%.
For `Cc1nc(-c2cc(-c3cccc(S(=O)(=O)C4CC4)c3)ccc2-n2cc(C(F)(F)F)nc2C)c(-c2ccc(OC(F)F)c(F)c2)o1` [Example 429, 4-(3′-(cyclopropylsulfonyl)-4-(2-methyl-4-(trifluoromethyl)-1H-imidazol-1-yl)biphenyl-3-yl)-5-(4-(difluoromethoxy)-3-fluorophenyl)-2-methyloxazole] the same measures were 74 nM and 83%.

These data come from patent US9834542B2, “LXR modulators” (BRISTOL-MYERS SQUIBB COMPANY, priority 2013, dated 2017).
